Consider 3 compounds from patent publication US4358440A, “Polypeptide and its production and use” (Takeda Chemical Industries, Ltd., priority 1980, dated 1982).

Read-outs that look alike come from different tables or passages of the source. Residues, ends and D or L forms follow the SMILES beside them.

For one data set, the system named is opiate receptor (brain). The data set can be described thus: binding strength with the opiate receptor (brain). Particulars: for binding strength with the opiate receptor (brain) relative to human beta-endorphin: times greater than human beta-endorphin; for binding activity relative to morphine: times greater than morphine. The protocol:
The above experiment was carried out by the procedure as described in The Journal of Biological Chemistry, Vol. 254, No. 8, p. 2610 (1979).

Data set [1] can be described thus: analgesic action of the novel peptide. Particulars: result in words; no test described.
For data set [2] the following is noted: result in words.
The conditions of data set [3]: rats, intracerebral route; cited from earlier work.
For data set [4] the following is noted: mice, intracerebral route; cited from earlier work.

In the case of `CC[C@H](C)[C@H](NC(=O)[C@H](Cc1c[nH]cn1)NC(=O)[C@H](CCCCN)NC(=O)[C@H](CC(C)C)NC(=O)[C@H](CC(C)C)NC(=O)[C@@H](NC(=O)[C@@H](NC(=O)[C@H](CC(C)C)NC(=O)[C@@H]1CCCN1C(=O)[C@H](CCCCN)NC(=O)[C@H](Cc1c[nH]cn1)NC(=O)[C@H](CO)NC(=O)[C@H](CCC(N)=O)NC(=O)[C@H](CCCCN)NC(=O)[C@@H](NC(=O)[C@H](Cc1ccc(O)cc1)NC(=O)[C@@H]1CCCN1C(=O)[C@H](CCCCN)NC(=O)[C@H](CCSC)NC(=O)[C@H](Cc1ccccc1)NC(=O)CNC(=O)CNC(=O)[C@@H](N)Cc1ccc(O)cc1)[C@@H](C)O)[C@@H](C)CC)[C@@H](C)O)C(=O)N[C@H](C(=O)N[C@@H](CC(C)C)C(=O)N[C@@H](CCCCN)C(=O)N[C@@H](CC(N)=O)C(=O)N[C@@H](CCC(=O)O)C(=O)N[C@@H](CCC(N)=O)C(=O)O)[C@@H](C)O` [Compound (I), H-Tyr-Gly-Gly-Phe-Met-Lys-Pro-Tyr-Thr-Lys-Gln-Ser-His-Lys-Pro-Leu-Ile-Thr- Leu-Leu-Lys-His-Ile-Thr-Leu-Lys-Asn-Glu-Gln-OH] (H-YGGFMKPYTKQSHKPLITLLKHITLKNEQ-OH), in the data set on opiate receptor (brain) (with the addition of sodium), the “binding strength with the opiate receptor (brain) relative to human beta-endorphin” value is given as “about 3.05 times” and the “binding activity relative to morphine” value is “about 3.74 times”. Besides, in the data set on opiate receptor (brain) (without the addition of sodium), the “binding strength with the opiate receptor (brain) relative to human beta-endorphin” value was “about 2.71 times” and the “binding activity relative to morphine” value was “about 4.6 times”. In addition, the analgesic action result in data set [1] is “excellent analgesic action”. In data set [2], the toxicity result is “very low toxicity”.

As to `CC[C@H](C)[C@H](NC(=O)[C@H](Cc1c[nH]cn1)NC(=O)[C@H](CCCCN)NC(=O)[C@H](CC(C)C)NC(=O)[C@H](CC(C)C)NC(=O)[C@@H](NC(=O)[C@@H](NC(=O)[C@H](CC(C)C)NC(=O)[C@@H]1CCCN1C(=O)[C@H](CCCCN)NC(=O)[C@H](Cc1c[nH]cn1)NC(=O)[C@H](CO)NC(=O)[C@H](CCC(N)=O)NC(=O)[C@H](CCCCN)NC(=O)[C@@H](NC(=O)[C@H](Cc1ccc(O)cc1)NC(=O)[C@@H]1CCCN1C(=O)[C@H](CCCCN)NC(=O)[C@H](CCSC)NC(=O)[C@H](Cc1ccccc1)NC(=O)CNC(=O)CNC(=O)[C@H](Cc1ccc(O)cc1)NC(C)=O)[C@@H](C)O)[C@@H](C)CC)[C@@H](C)O)C(=O)N[C@H](C(=O)N[C@@H](CC(C)C)C(=O)N[C@@H](CCCCN)C(=O)N[C@@H](CC(N)=O)C(=O)N[C@@H](CCC(=O)O)C(=O)N[C@@H](CCC(N)=O)C(=O)O)[C@@H](C)O` [salmon endorphin, reference compound] (Ac-YGGFMKPYTKQSHKPLITLLKHITLKNEQ-OH), the “binding to the opiate receptor” value in the data set on opiate receptor (brain) (result in words) is listed as “in no way binds to the opiate receptor”.

Take “beta-endorphin: brain peptide in mammals, a particularly important physiological peptide among the endorphins (YGGFMTSEKSQTPLVTLFKNAIIKNAYKKGE; Beta-endorphin; UniProt P01189 237-267, looked up)”: the analgesic effect result in data set [3] and in data set [4] was “exerts an analgesic effect” in each case.
